# Columns and labels:
# Enterococcus faecalis = assay: Antibacterial MIC/MBC, 96 well broth dilution; assay type: cell-based; conditions: E. faecalis, 24 hr in vitro, 0.02% Triton X-100
# Description: (§1) Bacterial cultures were obtained from the American Type Culture Collection (ATCC), except for Streptococcus pyogenes, which was started from a Difco Bactrol disc. The other organisms were Enterococcus faecalis, Staphylococcus aureus, Escherichia coli, Salmonella typhimurium and Pseudomonas aeruginosa. Cultures were grown in Luria-Bertani (LB) broth. Fungi were obtained from Carolina Biological Supply Company (Aspergillus niger, Candida albicans and Cryptococcus neoformans); Presque Isle Cultures, Erie Pa. (Microsporum gypseum); or from ATCC (Penicillium marneffei). Fungal cultures were maintained in Sabouraud dextrose broth (SDB) or agar (SDA). All media components came from Difco.
# (§2) Tests were done in flat-bottomed 96 well cell culture plates (Costar). All samples were done in duplicate. Eryngial was suspended in culture medium plus 0.04% Triton-X to make a 2% (20 mg/ml) suspension, which was passed through a 0.22 μm filter to make a uniform emulsion. Serial doubling dilutions of eryngial in culture medium plus 0.04% Triton-X were prepared, and 75 μl was added to each well. 75 μl of cell or spore suspensions in culture medium also were added to each well. The final concentration of Triton-X was 0.02%, and the final concentration of eryngial was 1% (10 mg/ml) at the highest concentration tested.
# (§3) Dimethyl sulfoxide (DMSO) also was used as a solvent for eryngial. A solution of 12.5% eryngial in DMSO was the initial solution. Doubling dilutions were carried out in DMSO. The DMSO-eryngial solutions were diluted 100-fold into growth medium, resulting in a final concentration of 1% DMSO, and 0.125% (1,250 μg/ml) eryngial as the highest concentration tested.
# (§4) Overnight bacterial cultures in LB medium were diluted into fresh LB to an OD600 of 0.02 to 0.03, and then diluted 1000-fold again in LB. […] Blank wells for each concentration of eryngial were prepared with plain culture medium added.
# (§5) The 96 well plates were incubated at 37° for 24 hr (in a candle jar for S. pyogenes), and the OD630 was read on an EL800 universal microplate reader (Bio-Tek Instruments). Readings from duplicate wells were averaged, and readings from duplicate blank wells for each concentration of eryngial were subtracted to generate the final values. The minimum inhibitory concentration (MIC, μg/ml) was defined as the well with the highest dilution of eryngial in which no growth was observed.
# (§6) To determine whether eryngial was merely inhibiting growth of the bacteria and fungi, or whether it also was having a killing effect, the minimum bactericidal concentrations (MBC, μg/ml) or minimum fungicidal concentrations (MFC, μg/ml) were determined. This was done by removing a 50 μl sample from a well after 24 hr (bacteria) or 96 hr (fungi) and diluting the samples in 5 ml of fresh culture medium. These tubes then were incubated at the appropriate temperature for 24-96 hr and observed for any signs of growth.
# Staphylococcus aureus = assay: Antibacterial MIC/MBC, 96 well broth dilution; assay type: cell-based; conditions: S. aureus, 24 hr in vitro, 0.02% Triton X-100
# Description: as §1, §2, §3, §4, §5, §6
# Streptococcus pyogenes = assay: Antibacterial MIC/MBC, 96 well broth dilution; assay type: cell-based; conditions: S. pyogenes, 24 hr in vitro, DMSO as solvent
# Description: as §1, §2, §3, §4, §5, §6
# Aspergillus niger = assay: Antifungal MIC/MFC, 96 well broth dilution; assay type: cell-based; conditions: A. niger; MIC and MFC not determined
# Description: as §1, §2, §3
# (§7) The yeast form fungi, Candida albicans and Cryptococcus neoformans, were grown overnight in SDB. Cell density was determined by counting in a hemacytometer. Cells were diluted in fresh SDB to a density of 10^4/ml, and 75 μl, or 7.5×10^2 cells, was added to each well. The filamentous form fungi, Aspergillus niger, Microsporum gypseum and Penicillium marneffei, were grown on SDA until spores formed. The surface of the culture was rinsed vigorously with sterile distilled water to make a spore suspension, which was counted with a hemacytometer. The spores were diluted into SDB at 10^4/ml, and 75 μl, or 7.5×10^2 spores, were added to each well. The 96 well plates were incubated at room temperature in a humidified chamber for up to 96 hr, and culture growth was monitored microscopically. Growth was documented by photomicrographs at 24 hr intervals, and by determining OD630 in the microplate reader as for the bacterial cultures.
# as §6
# Candida albicans = assay: Antifungal MIC/MFC, 96 well broth dilution; assay type: cell-based; conditions: C. albicans, 48-96 hr in vitro
# Description: as §1, §2, §3, §7, §6
# Cryptococcus neoformans = assay: Antifungal MIC/MFC, 96 well broth dilution; assay type: cell-based; conditions: C. neoformans, 48-96 hr in vitro
# Description: as §1, §2, §3, §7, §6
# Microsporum gypseum = assay: Antifungal MIC/MFC, 96 well broth dilution; assay type: cell-based; conditions: Nannizzia gypsea, M. gypseum, 48-96 hr in vitro
# Description: as §1, §2, §3, §7, §6
# Penicillium marneffei = assay: Antifungal MIC/MFC, 96 well broth dilution; assay type: cell-based; conditions: Talaromyces marneffei, P. marneffei, 48-96 hr in vitro
# Description: as §1, §2, §3, §7, §6
# S. stercoralis L3 larvae = conditions: after 120 hr of incubation, Forbes et al. (unpublished); cited from earlier work
smiles,measurement,setting,value
"CCCCCCCCC/C=C/C=O [Eryngial, trans-2-dodecenal]",MBC,Enterococcus faecalis,313 µg/mL
same,MIC,Enterococcus faecalis,313 µg/mL
same,MBC,Staphylococcus aureus,78 µg/mL
same,MIC,Staphylococcus aureus,78 µg/mL
same,MBC,Streptococcus pyogenes,156 µg/mL
same,MIC,Streptococcus pyogenes,156 µg/mL
same,growth in dilutions of the test compound,Aspergillus niger,"growth, albeit reduced, occurred in all dilutions"
same,MIC,Candida albicans,391 µg/mL
same,MBC,Candida albicans; table title says MFCs,391 µg/mL
same,MIC,Cryptococcus neoformans,78 µg/mL
same,MBC,Cryptococcus neoformans; table title says MFCs,78 µg/mL
same,MIC,Microsporum gypseum,39 µg/mL
same,MBC,Microsporum gypseum; table title says MFCs,39 µg/mL
same,MIC,Penicillium marneffei,39 µg/mL
same,MBC,Penicillium marneffei; table title says MFCs,39 µg/mL
same,increase in effectiveness over ivermectin based on time (hr) taken to kill 50% (LT50),S. stercoralis L3 larvae,7.1 fold

# — patent publication US9545386B2, “Methods of treating infectious diseases” (SLIPPERY ROCK UNIVERSITY FOUNDATION, INC., priority 2007, dated 2017)
